Positions of bridges follow the written chain, without caps; N, C: chain ends. Residues, ends and D or L forms follow the SMILES beside them. Chains are numbered I, II in the order given. No end group written: not given here.
Tests used:
[1] = GUV image analysis, shape descriptors (light sheet fluorescence microscopy); details: [(treated GUVs − control GUVs)/control GUVs]*100
Excerpt: GUVs appear dark against the background as a consequence of the difference in refractive index of GUVs contents (sucrose solution) and the surrounding medium (glucose solution). A white halo appears around the vesicle. Formation of pores and of protuberances may be thus evidenced. GUVs appear under differential interference contrast (DIC) round shaped with an average smaller area compared to GUVs treated with gH625 (Table 5, Figure 8). […] The addition of gH625-H7 to GUVs produced a similar effect of gH625 with the only difference that it induces an enhancement of the GUVs fusion tendency (Figure 8). gH625 and gH625-H7 enhance the mean area and perimeter of GUVs (Figure 9A,C). […] Main shape descriptor analysis confirms that the addition of gH625 or gH625-H7 induces an increase in area and perimeter also indicating a decrease in circularity and roundness parameters (Table 5).
LUVs and SUVs for fluorescence,circular dichroism and surface plasmon resonance, consisting of DOPG, DOPG/Chol (60/40 mol/mol), DOPC/Chol (60/40 mol/mol), and when necessary containing Rho-PE and NBD-PE, or ANTS and DPX, were prepared in 5 mM HEPES, 100 mM NaCl, pH 7.4[66]. Aliquots containing the necessary amount of lipids were dried from a chloroform solution with a nitrogen gas stream and lyophilized overnight to produce dry lipid films which were then resuspended in buffer and vortexed for 1 h; the lipid suspension was freeze-thawed 6 times to obtain multilamellar vesicles (MLV). […] Lipid concentrations of liposome suspensions were determined by phosphate analysis. […]
GUVs were used upon one day from preparation. Ten microliters of fluorescent GUVs were analyzed (before and after the addition of gH625 or gH625-H7) under a custom made light sheet fluorescent microscope equipped with five laser lines (λ = 375 nm Coherent Cube, λ = 405 nm Coherent Cube, λ = 473 nm Laserworld Blue-200, λ = 532 nm Coherent Compass 215 M-10 DPSS laser and λ = 632.8 nm Thorlabs HRR005S Helium-Neon laser), a motorized microscope MS-2000 XY stage with LX-4000 controller (Applied Scientific Instrumentation), a Focus Drive motorized Z stage (Tofra Inc.) and Nano-F200S nanopositioner controlled by Nanodrive® controller (Mad City Labs); all devices were managed by MicroManager software. […] The emerging fluorescence was detected by the Orca flash 2.8 sCMOS camera (Hamamatsu) driven by Dalsa Xcelera (Teledyne DALSA) PCIe card mounted on AMD FX-8 core 3.5 GHz, 32 Gb RAM pc running Windows 8.1 (Microsoft). […] GUV parameters were calculated by the Analyze particles ImageJ plugin; a minimum size of 5 μm^2 and circularity of at least […] Circularity=4π×[Area]/[Perimeter]^2 with a value of 1.0 indicating a perfect circle) was considered. […]

[2] = Acceptor photobleaching FRET, GUV fusion; details: NBD/Rhodamine GUVs mixed 1:4 with unlabelled GUVs, peptide:GUVs ratio 0.5
Excerpt: Figure 10 Mean fluorescence of GUVs suspension resulting after gH625 or gH625-H7 administration, calculated by the AccPbFRET plug in of ImageJ. The FRET efficiency E is 0.729, calculated as follows: E = 1 − (F Donor quenched by acceptor/F Donor de quenched) (A). Time course of FRET effect due to gH625 or gH625-H7 administration to GUVs. Values are expressed as integrated density, defined as the mean gray value per the mean area. Each time point represents the same field acquired in both channels. Each data set represents the mean of at least 10 GUVs for each field (B,C).
To evaluate the fusion of GUVs due to the addition of gH625 and gH625-H7, a slightly modified protocol for acceptor photobleaching FRET was performed. […] An aliquot of the mix was charged in the Burker’s chamber under Axioskop (Zeiss) fluorescence microscope; images were acquired using Axiocam Mrc5 CCD camera (Zeiss) in both at 525 nm and 615 nm and analysed with the Physiology module of Axiovision software 4.8 (Zeiss) to calculate the basic fluorescence of the donor. Samples were then treated with gH625 and gH625-H7 to a peptide:GUVs ratio of 0.5 and images were immediately acquired to calculate the fluorescence of the donor and the photobleaching of the acceptor (only used as a control for the amount of bleaching) after the exposure to peptides. […]

[3] = Lipid mixing (NBD/Rho FRET membrane fusion); details: lipid 0.1 mM, 25 °C
Excerpt: In order to gain insight into the ability to interact and perturb the lipid membrane, nitrobenzoxadiazole (NBD) and Rhodamine (Rho) were used as the donor and acceptor of fluorescence energy transfer. Dilution of labelled vesicles caused by peptide induced membrane fusion, determines a larger average distance between fluorescent and quenching lipids and thus a reduction in the fluorescence energy transfer efficiency. […] The three peptides interact more strongly with LUVs containing cholesterol, confirming the preference for more rigid membranes.
Figure 1 Peptide-promoted membrane fusion as determined by lipid mixing of gH625 (A), gH625-H7 (B) and gH625-G7 (C) in LUVs composed of: DOPG, DOPG/Chol 60/40 (mol/mol) and DOPC/Chol 60/40 (mol/mol). […] Lipid concentration is 0.1 mM. […] Panel D reports the peptide-promoted membrane fusion of the three peptides in DOPG/Chol LUVs 60/40 (mol/mol).
A cut off filter at 515 nm was used.

Molecule | Var % circularity versus GUVs alone [1] [%] | Var % roundness versus GUVs alone [1] [%] | increase of donor (NBD) fluorescence compared to GUVs alone [2] [fold] | lipid mixing activity in DOPG LUVs ([3]; average of three experiments) | lipid mixing activity in DOPG/Chol LUVs ([3]; compared to the other peptides)
CC[C@H](C)[C@H](NC(=O)[C@H](CC(C)C)NC(=O)[C@H](C)NC(=O)[C@H](CC(N)=O)NC(=O)[C@H](Cc1ccc(O)cc1)NC(=O)[C@H](Cc1c[nH]cn1)NC(=O)[C@H](C)NC(=O)[C@H](Cc1c[nH]c2ccccc12)NC(=O)[C@H](CCCNC(=N)N)NC(=O)[C@@H](NC(=O)[C@H](CC(C)C)NC(=O)[C@@H](NC(=O)[C@H](CO)NC(=O)[C@H](C)NC(=O)[C@H](CC(C)C)NC(=O)CNC(=O)[C@@H](N)Cc1c[nH]cn1)[C@@H](C)O)[C@@H](C)O)C(=O)N[C@@H](CCCNC(=N)N)C(=O)N[C@@H](C)C(=O)N[C@@H](Cc1ccccc1)C(N)=O [gH625] (H-HGLASTLTRWAHYNALIRAF-NH2) | −8.33 | −10.60 | 3.71 | less active than the other two | –
I: HGLASTLTRWAHYNALIRAFGCGKKKK-NH2 / II: HGLASTLTRWAHYNALIRAFGCGKKKK-NH2 (disulfide I:22-II:22) [gH625-H7] | −33.33 | −18.18 | 3.92 | – | significantly higher activity

Source: PMC5572722, “Dimerization in tailoring uptake efficacy of the HSV-1 derived membranotropic peptide gH625” (Scientific Reports, 2017)
